ChEMBL document CHEMBL5260799, “Pterocarpan scaffold: A natural lead molecule with diverse pharmacological properties” (Eur J Med Chem, 2017)
≈ marks a conversion by molar mass, not a printed value. Each block holds one compound with its values, some of them ahead of it.

Experiments:
[1] = Inhibition of melanin in human melanocyte; format: functional, cell-based
J774.A1 [2] = experiment: Anti-inflammatory activity against mouse J774.A 1 macrophage assessed as reduction in LPS-induced IL-6 expression by RT-PCR analysis; format: functional; parameters: scale not given: the % may be the effect or the level left
J774.A1 [3] = experiment: Anti-inflammatory activity against mouse J774.A 1 macrophage assessed as reduction in LPS-induced TNFalpha expression by RT-PCR analysis; format: functional; parameters: scale not given: the % may be the effect or the level left
[4] = biological target: Prostaglandin G/H synthase 1 (Homo sapiens, UniProt P23219); experiment: Inhibition of COX-1 (unknown origin)
Chain of Prostaglandin G/H synthase 1 (P23219 whole entry): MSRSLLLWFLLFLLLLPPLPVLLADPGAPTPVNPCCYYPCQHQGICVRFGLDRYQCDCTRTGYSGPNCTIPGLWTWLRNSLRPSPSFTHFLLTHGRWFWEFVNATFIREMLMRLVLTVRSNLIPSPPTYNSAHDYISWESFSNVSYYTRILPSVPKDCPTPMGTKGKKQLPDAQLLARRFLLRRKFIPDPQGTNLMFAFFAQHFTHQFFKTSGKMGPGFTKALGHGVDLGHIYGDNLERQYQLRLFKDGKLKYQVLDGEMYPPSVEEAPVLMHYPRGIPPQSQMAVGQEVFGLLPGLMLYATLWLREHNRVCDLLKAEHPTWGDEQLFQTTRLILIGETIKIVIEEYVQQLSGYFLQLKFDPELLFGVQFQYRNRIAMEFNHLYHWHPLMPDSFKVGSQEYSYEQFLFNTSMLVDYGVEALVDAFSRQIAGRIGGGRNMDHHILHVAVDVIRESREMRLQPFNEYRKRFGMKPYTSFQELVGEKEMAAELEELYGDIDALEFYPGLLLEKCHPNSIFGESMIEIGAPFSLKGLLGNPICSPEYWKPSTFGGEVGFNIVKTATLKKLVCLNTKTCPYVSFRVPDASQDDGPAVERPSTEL

[5] = Antiinflammatory activity against mouse primary bone marrow derived macrophages assessed as inhibition of COX-2 at 100 ug/ml; format: functional, BMDM; parameters: scale not given: the % may be the effect or the level left; details: dose 100 µg/ml
Staphylococcus aureus [6] = experiment: Antibacterial activity against Staphylococcus aureus ATCC 25923 assessed as bacterial growth inhibition by broth dilution method; format: functional, organism-based
Staphylococcus aureus [7] = experiment: Antibacterial activity against methicillin-resistant Staphylococcus aureus ATCC 25923 assessed as bacterial growth inhibition by broth dilution method; format: functional, organism-based
MCF7 = experiment: Antiproliferative activity against human MCF7 cells assessed as inhibition of cell proliferation incubated for 72 hrs by MTT assay; format: functional, cell-based; details: MCF7, 72 h
RAW264.7 = experiment: Antiinflammatory activity in mouse RAW264.7 cells assessed as inhibition of LPS-induced NO production at 50 uM measured after 24 hrs by Griess method; format: functional, cell-based; details: RAW264.7, 24 h
HL-60 = experiment: Antiproliferative activity against human HL-60 cells assessed as reduction in cell viability at 12.5 ug/ml by tryphan blue staining assay; format: functional; details: dose 12.5 µg/ml
[8] = Cytotoxicity against mouse RAW264.7 cells assessed as increase in NO production measured after 48 hrs by MTT assay; format: toxicity, cell-based
MDA-MB-231 = experiment: Cytotoxicity against human MDA-MB-231 assessed as reduction in cell viability by MTT assay; format: functional, cell-based
HeLa = experiment: Cytotoxicity against human HeLa cells assessed as reduction in cell viability by MTT assay; format: functional, cell-based
BMDC = experiment: Anti-inflammatory activity against LPS-induced C57BL/6 mouse BMDC cells assessed as inhibition of IL-12 production at 25 uM by ELISA method; format: functional; parameters: scale not given: the % may be the effect or the level left
[9] = Cytotoxicity against mouse N9 cells assessed as reduction in cell viability incubated for 48 hrs by MTT assay; format: toxicity, cell-based
Staphylococcus aureus [10] = experiment: Antibacterial activity against methicillin-resistant Staphylococcus aureus assessed as bacterial growth inhibition; format: functional, organism-based
Staphylococcus aureus [11] = experiment: Antibacterial activity against methicillin-resitant Staphylococcus aureus N1 assessed as reduction in bacterial growth by microbroth dilution method; format: functional
Mus musculus = organism: Mus musculus; experiment: Reduction in hepatic steatosis in HFD-induced C57BL/6J mouse model assessed as reduction in serum LDL level […]; format: functional, organism-based
A2780 = experiment: Antiproliferative activity against human A2780 cells assessed as reduction in cell viability incubated for 96 hrs by MTT assay; format: functional, cell-based; details: A2780, 96 h
Plasmodium falciparum = experiment: Antiplasmodial activity against Plasmodium falciparum D6 assessed as reduction in plasmodial growth after 48 hrs by fluorescence based analysis; format: functional, organism-based; details: D6, 48 h
[12] = Cytotoxicity activity against human Lucena 1 cells assessed as reduction in cell viability […] measured after 72 hrs by MTT assay; format: functional, cell-based; details: Lucena 1, 72 h
K562 = experiment: Cytotoxicity activity against human K562 cells assessed as reduction in cell viability […] measured after 72 hrs by MTT assay; format: functional, cell-based; details: K562, 72 h
[13] = Antioxidant activity assessed as DPPH radical scavenging activity incubated for 20 mins by spectrometry method; format: functional
CCRF-CEM = experiment: Cytotoxicity against human CCRF-CEM cells assessed as reduction in cell viability incubated for 72 hrs by MTT assay; format: functional, cell-based

IC50 [1]: 1.63 µM
SMILES: COc1ccc2c(c1)OC[C@H]1c3cc(O)c(OC)c(CC=C(C)C)c3O[C@@H]21 [LESPEFLORIN G8]

SMILES: OC[C@H]1O[C@H](Oc2ccc3c(c2)OCC2c4cc5c(cc4OC32)OCO5)[C@H](O)[C@@H](O)[C@@H]1O (some centres undefined)
Activity (J774.A1 [2]): 25%
Activity (J774.A1 [3]): 25%

IC50 [4]: 30.5 µM
SMILES: COc1ccc2c(c1O)OC1c3ccc(O)c(OC)c3OCC21 (centres undefined)
Activity [5]: 52.5%

SMILES: COc1ccc2c(c1CC=C(C)C)O[C@H]1c3ccc(C)cc3OC[C@@]21O
IC50 (Staphylococcus aureus [6]): 64 µg/mL (≈ 182 µM)
IC50 (Staphylococcus aureus [7]): 64 µg/mL (≈ 182 µM)

IC50 (MCF7): 7.8 µM
SMILES: COc1cc2c(cc1O)C1COC3C(=O)c4ccccc4C(=O)C3C1O2 (centres undefined)

EC50 (RAW264.7): 14.7 µM
SMILES: COc1ccc2c(c1OC)O[C@H]1c3ccc(O[C@H]4O[C@H](CO)[C@@H](O)[C@H](O)[C@H]4O)cc3OC[C@@H]21

SMILES: COc1ccc2c(c1)O[C@@H]1c3ccc(OC)cc3OC[C@H]21
Activity (HL-60): 52.5%

IC50 (MCF7): 27.7 µM
SMILES: COc1cc2c(cc1OCc1ccccc1)OC1C2COC2C(=O)c3ccccc3C(=O)C21 (centres undefined)

SMILES: CC(=O)/C(C)=C/c1c(O)ccc2c1O[C@H]1c3ccc(O)cc3OC[C@@H]21
IC50 at 48 h [8]: 19 µM

SMILES: O=c1cccc2n1C[C@@H]1C[C@H]2CN(Cc2c(O)ccc3c2OC[C@H]2c4cc5c(cc4O[C@@H]32)OCO5)C1
IC50 (MDA-MB-231): 48.9 µM
IC50 (HeLa): 24.3 µM

IC50 (MCF7): 5.3 µM
SMILES: COc1cc2c(cc1O)OC1C2COC2C(=O)c3ccccc3C(=O)C21 (centres undefined)

SMILES: COc1ccc2c(c1OC)OC1c3ccc(O[C@H]4O[C@H](CO)[C@@H](O)[C@H](O)[C@H]4O)cc3OCC21 (some centres undefined)
Activity (BMDC): 10%

SMILES: C=C(C)/C(C)=C/c1c(O)ccc2c1O[C@H]1c3ccc(O)cc3OC[C@@H]21
IC50 at 48 h [9]: 9.4 µM
IC50 at 48 h [8]: 23 µM

SMILES: CC(C)=CCc1cc2c(cc1O)OCc1c-2oc2c(CC=C(C)C)c(O)ccc12 [ERYCRYSTAGALLIN]
IC50 (Staphylococcus aureus [10]): 6.25 µg/mL (≈ 16 µM)
MIC (Staphylococcus aureus [11]): 0.78 µg/mL (≈ 2 µM)

SMILES: COc1ccc2c(c1)O[C@@H]1c3ccc(O)c(O)c3OC[C@H]21
Activity (HL-60): 72.1%

SMILES: COc1ccc2c(c1)O[C@@H]1c3ccc(O)cc3OC[C@H]21
Activity (HL-60): 57.4%

IC50 (Mus musculus): 45 µM
SMILES: C=C(C)[C@@H]1Cc2cc3c(cc2O1)OC[C@@]1(O)c2ccc(O)cc2O[C@@H]31 [GLYCEOLLIN III]

EC50 (RAW264.7): 19.2 µM
SMILES: CC/C=C/OC[C@H]1O[C@H](Oc2ccc3c(c2)OC[C@H]2c4ccc(OC)c(OC)c4O[C@@H]32)[C@H](O)[C@@H](O)[C@@H]1O

IC50 (A2780): > 54.4 µM
SMILES: C=C(CO)[C@H]1Cc2cc3c(cc2O1)OC[C@H]1c2cc4c(cc2O[C@@H]31)OCO4

SMILES: COc1ccc2c(c1CC=C(C)C)O[C@H]1c3ccc(OC(C)=O)cc3OC[C@@H]21
IC50 (Plasmodium falciparum): 34.8 µg/mL (≈ 91.5 µM)

IC50 [1]: 1.5 µM
SMILES: CC(C)=CCc1c(O)c(C)cc2c1O[C@H]1c3cc4c(cc3OC[C@@H]21)OC(C)(C)C=C4 [LESPECYRTIN E5]

SMILES: O=C1C2=C(C(=O)c3ccccc31)[C@H]1Oc3cc4c(cc3[C@H]1CO2)OCO4
IC50 [12]: 5.47 µM
IC50 (K562): 4.63 µM

IC50 [13]: 3.8 µM
SMILES: COc1c(O)cc2c(c1OC)O[C@H]1c3ccc(O)cc3OC[C@@H]21

SMILES: COc1ccc2c(c1CC=C(C)C)O[C@H]1c3ccc(O)cc3OC[C@@]21O [ERYTHRABYSSIN I]
IC50 (CCRF-CEM): 3.36 µM

SMILES: COc1ccc2c(c1CC=C(C)C)O[C@H]1c3ccc(O)cc3OC[C@@]21OC [ERYTHRIBYSSIN A]
IC50 (Staphylococcus aureus [6]): 64 µg/mL (≈ 174 µM)
IC50 (Staphylococcus aureus [7]): 32 µg/mL (≈ 86.9 µM)

IC50 [1]: 1.44 µM
SMILES: COc1c(O)cc2c(c1CC=C(C)C)O[C@H]1c3ccc(O)cc3OC[C@@H]21
